Results as given in the NIST ThermoML archive (doi:10.1016/j.jct.2015.09.002).

Test: xn = mol fraction of the nth substance listed
Conditions: 93.2 kPa, Liquid, Vibrating tube method

CCN(CC)CC [triethylamine] + CC#N
mass density [kg/m3]
Conditions | 293.15 K | 298.15 K | 303.15 K | 308.15 K
x2 = 0 | 727.7 | 723.02 | 718.36 | 713.65
x2 = 0.0113 | 728.13 | 723.44 | 718.77 | 714.06
x2 = 0.0212 | 728.41 | 723.73 | 719.05 | 714.32
x2 = 0.03 | 728.67 | 723.97 | 719.29 | 714.57
x2 = 0.0406 | 728.98 | 724.28 | 719.6 | 714.86
x2 = 0.0502 | 729.23 | 724.53 | 719.84 | 715.1
x2 = 0.0591 | 729.48 | 724.77 | 720.06 | 715.32
x2 = 0.0701 | 729.78 | 725.07 | 720.35 | 715.6
x2 = 0.0842 | 730.18 | 725.45 | 720.73 | 715.97
x2 = 0.0944 | 730.47 | 725.73 | 721.02 | 716.24
x2 = 0.1013 | 730.66 | 725.97 | 721.24 | 716.48
x2 = 0.1519 | 732.16 | 727.46 | 722.63 | 717.85
x2 = 0.1991 | 733.6 | 728.85 | 723.99 | 719.16
x2 = 0.2501 | 735.21 | 730.39 | 725.53 | 720.64
x2 = 0.3018 | 736.94 | 732.07 | 727.17 | 722.25
x2 = 0.3505 | 738.65 | 733.76 | 728.84 | 723.88
x2 = 0.4003 | 740.52 | 735.58 | 730.62 | 725.63
x2 = 0.4482 | 742.43 | 737.48 | 732.49 | 727.48
x2 = 0.5002 | 744.69 | 739.7 | 734.68 | 729.63
x2 = 0.5511 | 747.1 | 742.08 | 737.03 | 731.95
x2 = 0.5995 | 749.58 | 744.55 | 739.43 | 734.36
x2 = 0.6499 | 752.4 | 747.32 | 742.18 | 737.06
x2 = 0.702 | 755.6 | 750.5 | 745.3 | 740.16
x2 = 0.7498 | 758.83 | 753.71 | 748.42 | 743.28
x2 = 0.7998 | 762.53 | 757.35 | 752.07 | 746.81
x2 = 0.85 | 766.68 | 761.45 | 756.13 | 750.82
x2 = 0.8994 | 771.19 | 765.92 | 760.59 | 755.2
x2 = 0.9095 | 772.21 | 766.93 | 761.6 | 756.23
x2 = 0.9199 | 773.25 | 767.97 | 762.63 | 757.25
x2 = 0.9293 | 774.23 | 768.93 | 763.58 | 758.19
x2 = 0.9402 | 775.35 | 770.05 | 764.69 | 759.29
x2 = 0.9495 | 776.36 | 771.03 | 765.7 | 760.33
x2 = 0.9591 | 777.43 | 772.08 | 766.69 | 761.27
x2 = 0.9685 | 778.48 | 773.13 | 767.72 | 762.31
x2 = 0.99 | 780.9 | 775.52 | 770.1 | 764.64

CCCCN [1-butanamine] + CC#N
mass density [kg/m3]
Conditions | 293.15 K | 298.15 K | 303.15 K | 308.15 K
x2 = 0 | 737.12 | 732.33 | 727.51 | 722.66
x2 = 0.0102 | 737.48 | 732.7 | 727.88 | 723.03
x2 = 0.0229 | 737.89 | 733.1 | 728.28 | 723.42
x2 = 0.0481 | 738.62 | 733.83 | 729.01 | 724.14
x2 = 0.0616 | 738.99 | 734.2 | 729.37 | 724.51
x2 = 0.2006 | 742.87 | 738.04 | 733.19 | 728.3
x2 = 0.35 | 747.75 | 742.84 | 737.89 | 732.98
x2 = 0.4 | 749.52 | 744.61 | 739.64 | 734.69
x2 = 0.4503 | 751.36 | 746.43 | 741.47 | 736.49
x2 = 0.5007 | 753.36 | 748.41 | 743.43 | 738.41
x2 = 0.5489 | 755.38 | 750.41 | 745.4 | 740.35
x2 = 0.6002 | 757.66 | 752.67 | 747.61 | 742.54
x2 = 0.6492 | 759.99 | 754.96 | 749.88 | 744.78
x2 = 0.6998 | 762.57 | 757.51 | 752.4 | 747.24
x2 = 0.7488 | 765.21 | 760.11 | 754.97 | 749.77
x2 = 0.7997 | 768.18 | 763.02 | 757.82 | 752.57
x2 = 0.85 | 771.3 | 766.08 | 760.83 | 755.54
x2 = 0.9004 | 774.67 | 769.4 | 764.09 | 758.76
x2 = 0.9188 | 775.96 | 770.66 | 765.33 | 759.98
x2 = 0.9498 | 778.23 | 772.9 | 767.54 | 762.15
x2 = 0.96 | 779.01 | 773.67 | 768.29 | 762.89
x2 = 0.9694 | 779.73 | 774.38 | 769 | 763.59
x2 = 0.9804 | 780.56 | 775.21 | 769.81 | 764.38
x2 = 0.9892 | 781.24 | 775.87 | 770.46 | 765.03
